Legend:
Assay in all cases: relative viability (nuclei count vs DMSO), 5 days (fraction); higher = more cells survive
Elesclomol + AZD7762 = compound: CN(NC(=O)CC(=O)NN(C)C(=S)c1ccccc1)C(=S)c1ccccc1 [Elesclomol] + NC(=O)Nc1cc(-c2cccc(F)c2)sc1C(=O)N[C@H]1CCCNC1 [AZD7762] (partner 0.2 µM)
In short: (§1)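 Lung cancer cell lines, seeded in 1536-well plates, were treated the following day by pin tool with a single drug or with five library-drug doses (not always all listed) in √10 steps on top of a fixed anchor-drug dose. Cells were fixed and nuclei stained in one step after 5 days, and nuclei were counted. Relative viability is the nuclei count for treated wells divided by that for vehicle wells, reported as medians of duplicate plates.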

Elesclomol + Alpelisib = compound: CN(NC(=O)CC(=O)NN(C)C(=S)c1ccccc1)C(=S)c1ccccc1 [Elesclomol] + Cc1nc(NC(=O)N2CCC[C@H]2C(N)=O)sc1-c1ccnc(C(C)(C)C(F)(F)F)c1 [Alpelisib] (partner 2 µM)
In short: as §1

Elesclomol + Lapatinib = compound: CN(NC(=O)CC(=O)NN(C)C(=S)c1ccccc1)C(=S)c1ccccc1 [Elesclomol] + CS(=O)(=O)CCNCc1ccc(-c2ccc3ncnc(Nc4ccc(OCc5cccc(F)c5)c(Cl)c4)c3c2)o1 [Lapatinib] (partner 2 µM)
In short: as §1

Elesclomol + Dasatinib = compound: CN(NC(=O)CC(=O)NN(C)C(=S)c1ccccc1)C(=S)c1ccccc1 [Elesclomol] + Cc1nc(Nc2ncc(C(=O)Nc3c(C)cccc3Cl)s2)cc(N2CCN(CCO)CC2)n1 [Dasatinib] (partner 0.075 µM)
In short: as §1

Elesclomol + Phenformin = compound: CN(NC(=O)CC(=O)NN(C)C(=S)c1ccccc1)C(=S)c1ccccc1 [Elesclomol] + N=C(N)NC(=N)NCCc1ccccc1 [Phenformin] (partner 250 µM)
In short: as §1

Row | Cell Line | relative viability (Elesclomol + AZD7762; first compound 0.003162 µM) | relative viability (Elesclomol + AZD7762; first compound 0.01 µM) | relative viability (Elesclomol + AZD7762; first compound 0.03162 µM) | relative viability (Elesclomol + AZD7762; first compound 0.1 µM) | relative viability (Elesclomol + Alpelisib; first compound 0.003162 µM) | relative viability (Elesclomol + Alpelisib; first compound 0.01 µM) | relative viability (Elesclomol + Alpelisib; first compound 0.03162 µM) | relative viability (Elesclomol + Alpelisib; first compound 0.1 µM) | relative viability (Elesclomol + Lapatinib; first compound 0.003162 µM) | relative viability (Elesclomol + Lapatinib; first compound 0.01 µM) | relative viability (Elesclomol + Lapatinib; first compound 0.03162 µM) | relative viability (Elesclomol + Lapatinib; first compound 0.1 µM) | relative viability (Elesclomol + Dasatinib; first compound 0.003162 µM) | relative viability (Elesclomol + Dasatinib; first compound 0.01 µM) | relative viability (Elesclomol + Dasatinib; first compound 0.03162 µM) | relative viability (Elesclomol + Dasatinib; first compound 0.1 µM) | relative viability (Elesclomol + Phenformin; first compound 0.003162 µM) | relative viability (Elesclomol + Phenformin; first compound 0.01 µM) | relative viability (Elesclomol + Phenformin; first compound 0.03162 µM) | relative viability (Elesclomol + Phenformin; first compound 0.1 µM)
1 | 201T | 0.558 | 0.628 | 0.564 | 0.598 | 0.985 | 1.02 | 1.03 | 0.964 | 1.04 | 1.08 | 1.07 | 0.985 | 0.535 | 0.587 | 0.543 | 0.236 | 0.464 | 0.428 | 0.435 | 0.385
2 | A-427 | 0.756 | 0.527 | 0.188 | 0.151 | 1.04 | 1.07 | 1.15 | 0.558 | 0.933 | 1.02 | 1.05 | 0.52 | 0.661 | 0.582 | 0.358 | 0.127 | 0.342 | 0.216 | 0.319 | 0.104
3 | ABC-1 | 0.294 | 0.252 | 0.309 | 0.236 | 0.292 | 0.313 | 0.23 | 0.256 | 0.935 | 0.477 | 0.466 | 0.42 | 0.173 | 0.233 | 0.207 | 0.193 | 0.239 | 0.22 | 0.224 | 0.17
4 | BEN | 0.654 | 0.54 | 0.38 | 0.294 | 0.873 | 0.351 | 0.338 | 0.242 | 0.577 | 0.335 | 0.247 | 0.197 | 0.359 | 0.204 | 0.219 | 0.159 | 0.264 | 0.233 | 0.259 | 0.246
5 | CAL-12T | 0.622 | 0.483 | 0.3 | 0.17 | 1.19 | 0.239 | 0.312 | 0.0757 | 0.529 | 0.484 | 0.103 | 0.0805 | 0.282 | 0.117 | 0.0442 | 0.0555 | 0.456 | 0.159 | 0.153 | 0.0571
6 | COR-L23 |  |  |  |  | 0.694 | 0.366 | 0.268 | 0.0856 | 0.885 | 0.484 | 0.434 | 0.178 | 0.439 | 0.254 | 0.141 | 0.068 | 0.367 | 0.187 | 0.163 | 0.053
7 | COR-L 105 |  |  |  |  | 1.11 | 0.712 | 0.409 | 0.256 | 0.341 | 0.291 | 0.283 | 0.246 | 0.303 | 0.248 | 0.21 | 0.079 | 0.417 | 0.315 | 0.289 | 0.168
8 | ChaGo-K-1 | 0.88 | 0.715 | 0.416 | 0.139 |  |  |  |  |  |  |  |  | 0.609 | 0.458 | 0.214 | 0.116 | 0.503 | 0.393 | 0.275 | 0.174
9 | EKVX | 0.569 | 0.318 | 0.206 | 0.0929 | 0.857 | 0.369 | 0.328 | 0.174 | 0.204 | 0.204 | 0.16 | 0.141 | 0.474 | 0.315 | 0.226 | 0.202 | 0.219 | 0.225 | 0.201 | 0.172
10 | EMC-BAC-2 | 1.2 | 0.775 | 0.831 | 0.684 | 0.743 | 0.649 | 0.616 | 0.389 | 0.841 | 0.797 | 0.757 | 0.541 | 0.361 | 0.28 | 0.286 | 0.138 | 0.552 | 0.372 | 0.414 | 0.266
11 | EPLC-272H | 0.255 | 0.159 | 0.11 | 0.104 | 1.07 |  | 0.861 | 0.249 | 0.873 |  | 1.04 | 0.119 | 0.397 |  | 0.405 | 0.059 | 0.293 |  | 0.291 | 0.172
12 | H3255 | 0.818 | 0.773 | 0.584 | 0.521 | 0.721 | 0.473 | 0.348 | 0.309 | 0.246 | 0.265 | 0.207 | 0.232 | 0.387 | 0.396 | 0.274 | 0.222 | 0.312 | 0.338 | 0.366 | 0.313
13 | HARA | 0.348 | 0.288 | 0.302 | 0.227 | 0.803 | 0.687 | 0.944 | 0.17 | 0.679 | 0.715 | 0.756 | 0.186 | 0.244 | 0.312 | 0.283 | 0.0991 | 0.506 | 0.413 | 0.475 | 0.169
14 | HCC-15 | 1.15 | 1.3 | 1.13 | 0.632 | 0.931 | 0.645 | 0.559 | 0.236 | 0.869 | 0.684 | 0.574 | 0.284 | 0.533 | 0.386 | 0.169 | 0.0668 | 0.452 | 0.438 | 0.335 | 0.231
15 | HCC-44 | 1 | 0.942 | 0.996 | 1 | 0.812 | 0.723 | 0.768 | 0.371 | 0.95 | 0.941 | 1.03 | 0.727 |  |  |  |  | 0.375 | 0.148 | 0.091 | 0.0922
16 | HCC-78 | 0.672 | 0.696 | 0.513 | 0.642 | 0.27 | 0.354 | 0.325 | 0.307 | 0.704 | 0.65 | 0.932 | 0.798 | 0.28 | 0.407 | 0.319 | 0.34 | 0.631 | 0.758 | 0.539 | 0.615
17 | HCC-366 | 0.312 | 0.255 | 0.393 | 0.0195 | 0.437 | 0.491 | 0.359 | 0.0118 | 1.07 | 1.06 | 0.563 | 0.015 | 0.596 | 0.624 | 0.542 | 0.029 | 0.611 | 0.562 | 0.436 | 0.0349

Source: the supplement of paper PMC10307832
